PubChem BioAssay (NCI)
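Cultured in 96-well plates, cells were exposed to test compound for 48 hours across five concentrations. Definition used: TGI = concentration required for complete inhibition of growth.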

Key:
Test in all cases: DTP human tumour cell line panel, 48 h
[1] = tested on: BT-549 breast
[2] = tested on: IGROV1 ovarian
[3] = tested on: SN12C renal
[4] = tested on: OVCAR-3 ovarian
[5] = tested on: MCF7 breast
[6] = tested on: TK-10 renal
[7] = tested on: OVCAR-8 ovarian
[8] = tested on: SK-MEL-2 melanoma
[9] = tested on: SF-295 CNS
[10] = tested on: NCI-H460 lung
[11] = tested on: A549 NSCLC
[12] = tested on: SF-539 CNS
[13] = tested on: NCI-H23 lung
[14] = tested on: SW-620 colon
[15] = tested on: MDA-MB-231 breast
[16] = tested on: 786-0 renal
[17] = tested on: MDA-N
[18] = tested on: SF-268 CNS
[19] = tested on: HOP-92 NSCLC

| SMILES | TGI [1] [µM] | TGI [2] [µM] | TGI [3] [µM] | TGI [4] [µM] | TGI [5] [µM] | TGI [6] [µM] | TGI [7] [µM] | TGI [8] [µM] | TGI [9] [µM] | TGI [10] [µM] | TGI [11] [µM] | TGI [12] [µM] | TGI [13] [µM] | TGI [14] [µM] | TGI [15] [µM] | TGI [16] [µM] | TGI [17] [µM] | TGI [18] [µM] | TGI [19] [µM] |
| --- | --- | --- | --- | --- | --- | --- | --- | --- | --- | --- | --- | --- | --- | --- | --- | --- | --- | --- | --- |
| O=C1C=CC(=O)c2c(NCC3CC3)ccc(NCC3CC3)c21 | > 100 | > 100 | > 100 | 63.4 | 48.6 | > 100 | > 100 | > 100 | 79.8 | > 100 | > 100 | > 100 | 89.4 | > 100 | > 100 | > 100 | – | – | – |
| COc1ccc(C(=O)/C=C/c2ccc(OCCSCCCCCCCCCCSCCOc3ccc(/C=C/C(=O)c4ccc(OC)cc4)cc3)cc2)cc1 | – | > 100 | > 100 | – | > 100 | > 100 | > 100 | > 100 | > 100 | > 100 | > 100 | > 100 | – | > 100 | > 100 | > 100 | > 100 | > 100 | – |
| C=CN1C(=O)OC[C@@H]1c1ccccc1 | – | > 100 | > 100 | > 100 | – | > 100 | > 100 | > 100 | > 100 | > 100 | > 100 | > 100 | > 100 | 37.9 | – | > 100 | – | > 100 | > 100 |
| NC1=NNC2(C(=O)N1)c1ccccc1-c1ccccc12 | – | > 10 | > 10 | > 10 | > 10 | > 10 | > 10 | > 10 | > 10 | > 10 | > 10 | > 10 | > 10 | > 10 | – | > 10 | > 10 | > 10 | > 10 |
| COc1ccc(N(C)Sc2ccccc2)cc1 | – | > 100 | 75.3 | > 100 | – | > 100 | > 100 | > 100 | > 100 | > 100 | > 100 | 56 | > 100 | > 100 | – | 34.9 | – | > 100 | > 100 |
| O=c1[nH]c(=O)n(COCCO)c2ccc(Br)cc12 | – | > 100 | > 100 | > 100 | > 100 | > 100 | > 100 | > 100 | > 100 | > 100 | > 100 | > 100 | – | > 100 | > 100 | > 100 | > 100 | – | > 100 |
| O/N=C/c1cc2c(cc1Br)OCO2 | – | > 100 | > 100 | > 100 | – | > 100 | > 100 | > 100 | > 100 | > 100 | > 100 | > 100 | > 100 | > 100 | – | > 100 | – | – | – |
| O=C(Cc1ccccc1)NN1C(=O)C(Cl)C1c1ccc([N+](=O)[O-])cc1 (centres undefined) | – | > 100 | > 100 | > 100 | – | > 100 | > 100 | > 100 | > 100 | > 100 | > 100 | – | > 100 | > 100 | – | > 100 | – | > 100 | – |
| COc1cc(NCc2ccc3nc(-c4ccccc4)c(N)nc3c2)cc(OC)c1OC | – | > 100 | > 100 | 82.7 | 55.9 | > 100 | 57.3 | > 100 | 92.7 | > 100 | 83.8 | 91.4 | 62.3 | > 100 | > 100 | > 100 | > 100 | 98.6 | 78.1 |
| O=C(O)C12C3C4C1C1C2C3C1(Br)C41OCCO1 (centres undefined) | – | > 100 | – | > 100 | – | > 100 | > 100 | > 100 | > 100 | > 100 | > 100 | > 100 | > 100 | > 100 | – | > 100 | – | > 100 | > 100 |
| O=C1c2cc3c(cc2CC12Cc1cc4c(cc1C2=O)CCC4)CCC3 | > 100 | > 100 | > 100 | > 100 | > 100 | > 100 | > 100 | > 100 | > 100 | > 100 | > 100 | > 100 | > 100 | > 100 | > 100 | > 100 | – | > 100 | – |
| CSc1nc(-c2ccc(C)cc2)c(C#N)c(=O)[nH]1 | > 100 | > 100 | > 100 | > 100 | > 100 | > 100 | > 100 | > 100 | > 100 | > 100 | > 100 | > 100 | > 100 | > 100 | > 100 | > 100 | – | > 100 | > 100 |
| CN(C(=O)c1ccc(Cl)cc1)C(=S)N1CCN(c2ccccn2)CC1 | – | > 100 | > 100 | > 100 | – | > 100 | > 100 | > 100 | > 100 | > 100 | > 100 | > 100 | > 100 | > 100 | – | > 100 | – | > 100 | > 100 |
| COc1cc(Cl)cc(N(O)C(C)=O)c1OCc1ccccc1 | – | > 100 | > 100 | > 100 | – | > 100 | > 100 | – | > 100 | > 100 | > 100 | > 100 | > 100 | > 100 | – | > 100 | – | > 100 | > 100 |
| CCOC(=O)NC(C(=O)OCC)C(F)(F)F (centres undefined) | – | > 100 | > 100 | > 100 | > 100 | > 100 | > 100 | > 100 | > 100 | > 100 | > 100 | > 100 | > 100 | > 100 | > 100 | > 100 | > 100 | > 100 | > 100 |
